pIC50: −log10 of the molar value. Where “and” joins values, the source holds several entries; their conditions need not be identical. Identical values can stand only once.
What was measured:
Test in all cases: biochemical
Format in all cases: biochemical
various kinases [1] = biological target: various kinases (Homo sapiens, UniProt Q16512); conditions: kinase PKN1 (PRK1); ZLYTE
various kinases [2] = biological target: various kinases (Homo sapiens, UniProt P49759); conditions: CLK1
various kinases [3] = biological target: various kinases (Homo sapiens, UniProt P07949, V804L); conditions: kinase RET V804L; ZLYTE
various kinases [4] = biological target: various kinases (Homo sapiens, UniProt P42685); conditions: FRK (PTK5)
various kinases [5] = biological target: various kinases (Homo sapiens, UniProt Q8TDX7); conditions: NEK7
various kinases [6] = biological target: various kinases (Homo sapiens, UniProt P00533, C797S/L858R/T790M); conditions: EGFR (ErbB1) T790M C797S L858R
various kinases [7] = biological target: various kinases (Homo sapiens, UniProt Q8TD19); conditions: NEK9
various kinases [8] = biological target: various kinases (Homo sapiens, UniProt P80192); conditions: MAP3K9 (MLK1)
various kinases [9] = biological target: various kinases (Homo sapiens, UniProt O15075); conditions: DCAMKL1 (DCLK1)
various kinases [10] = biological target: various kinases (Homo sapiens, UniProt P53350); conditions: kinase PLK1; ZLYTE
various kinases [11] = biological target: various kinases (Homo sapiens, UniProt P21709); conditions: EPHA1
various kinases [12] = conditions: for % Inhibition Average / % Inhibition Duplicate #1 / % Inhibition Duplicate #2: ZLYTE
various kinases [13] = biological target: various kinases (Homo sapiens, UniProt Q96NX5); conditions: CAMK1G (CAMKI gamma)
various kinases [14] = biological target: various kinases (Homo sapiens, UniProt O43293); conditions: DAPK3 (ZIPK)
various kinases [15] = biological target: T1, various kinases (Homo sapiens, UniProt O00141); conditions: kinase SGK (SGK1); ZLYTE
T1 sequence (O00141 1-431): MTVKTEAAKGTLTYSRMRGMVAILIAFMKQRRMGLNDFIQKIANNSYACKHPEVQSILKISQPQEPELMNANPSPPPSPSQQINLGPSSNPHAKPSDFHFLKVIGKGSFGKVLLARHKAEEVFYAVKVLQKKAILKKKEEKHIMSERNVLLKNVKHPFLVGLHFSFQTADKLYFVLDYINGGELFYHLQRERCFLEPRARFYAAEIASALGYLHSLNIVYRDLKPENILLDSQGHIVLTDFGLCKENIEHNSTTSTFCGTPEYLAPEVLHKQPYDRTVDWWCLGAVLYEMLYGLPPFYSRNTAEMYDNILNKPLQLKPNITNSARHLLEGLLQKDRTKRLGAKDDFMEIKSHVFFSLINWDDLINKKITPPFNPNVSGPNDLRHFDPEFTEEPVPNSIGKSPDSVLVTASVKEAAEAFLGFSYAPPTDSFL

various kinases [16] = biological target: various kinases (Homo sapiens, UniProt O00506); conditions: kinase STK25 (YSK1); ZLYTE
various kinases [17] = biological target: various kinases (Homo sapiens, UniProt P54760); conditions: EPHB4
various kinases [18] = biological target: various kinases (Homo sapiens, UniProt Q52WX2); conditions: kinase SBK1; ZLYTE
various kinases [19] = biological target: various kinases (Homo sapiens, UniProt Q9UQM7); conditions: CAMK2A (CaMKII alpha)
various kinases [20] = biological target: various kinases (Homo sapiens, UniProt Q9Y6M4); conditions: CSNK1G3 (CK1 gamma 3)
various kinases [21] = biological target: various kinases (Homo sapiens, UniProt P54764); conditions: EPHA4
various kinases [22] = biological target: various kinases (Homo sapiens, UniProt Q08881); conditions: ITK
various kinases [23] = biological target: various kinases (Homo sapiens, UniProt Q8IW41); conditions: MAPKAPK5 (PRAK)
various kinases [24] = biological target: various kinases (Homo sapiens, UniProt Q16816); conditions: PHKG1
various kinases [25] = biological target: various kinases (Homo sapiens, UniProt P09619); conditions: PDGFRB (PDGFR beta)
various kinases [26] = biological target: various kinases (Homo sapiens, UniProt P30530); conditions: AXL
various kinases [27] = biological target: various kinases (Homo sapiens, UniProt P10721, V559D); conditions: KIT V559D
various kinases [28] = biological target: various kinases (Homo sapiens, UniProt Q9UM73); conditions: ALK
various kinases [29] = biological target: various kinases (Homo sapiens, UniProt Q9NR20); conditions: DYRK4
various kinases [30] = biological target: various kinases (Homo sapiens, UniProt P53778); conditions: MAPK12 (p38 gamma)
various kinases [31] = biological target: various kinases (Homo sapiens, UniProt Q5VT25); conditions: CDC42 BPA (MRCKA)

various kinases (Homo sapiens, UniProt Q08881), sequence (Q08881 whole entry): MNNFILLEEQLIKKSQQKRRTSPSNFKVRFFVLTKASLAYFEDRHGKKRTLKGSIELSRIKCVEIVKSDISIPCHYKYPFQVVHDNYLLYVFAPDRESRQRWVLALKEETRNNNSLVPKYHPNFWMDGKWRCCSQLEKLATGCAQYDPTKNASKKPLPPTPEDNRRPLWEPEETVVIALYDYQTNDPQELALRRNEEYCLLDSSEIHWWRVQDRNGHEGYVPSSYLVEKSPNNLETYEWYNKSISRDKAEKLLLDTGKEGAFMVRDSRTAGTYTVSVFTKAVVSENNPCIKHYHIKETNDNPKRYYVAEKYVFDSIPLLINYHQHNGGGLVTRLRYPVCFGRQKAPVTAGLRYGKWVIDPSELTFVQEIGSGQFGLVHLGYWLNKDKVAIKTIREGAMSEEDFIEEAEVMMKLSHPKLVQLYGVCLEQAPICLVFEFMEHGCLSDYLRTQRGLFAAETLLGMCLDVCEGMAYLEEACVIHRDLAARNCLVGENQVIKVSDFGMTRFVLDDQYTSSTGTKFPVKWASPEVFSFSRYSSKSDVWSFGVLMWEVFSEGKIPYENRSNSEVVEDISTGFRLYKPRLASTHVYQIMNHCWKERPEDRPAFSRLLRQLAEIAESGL
various kinases (Homo sapiens, UniProt P07949, V804L), sequence (P07949 29-1114 V804L): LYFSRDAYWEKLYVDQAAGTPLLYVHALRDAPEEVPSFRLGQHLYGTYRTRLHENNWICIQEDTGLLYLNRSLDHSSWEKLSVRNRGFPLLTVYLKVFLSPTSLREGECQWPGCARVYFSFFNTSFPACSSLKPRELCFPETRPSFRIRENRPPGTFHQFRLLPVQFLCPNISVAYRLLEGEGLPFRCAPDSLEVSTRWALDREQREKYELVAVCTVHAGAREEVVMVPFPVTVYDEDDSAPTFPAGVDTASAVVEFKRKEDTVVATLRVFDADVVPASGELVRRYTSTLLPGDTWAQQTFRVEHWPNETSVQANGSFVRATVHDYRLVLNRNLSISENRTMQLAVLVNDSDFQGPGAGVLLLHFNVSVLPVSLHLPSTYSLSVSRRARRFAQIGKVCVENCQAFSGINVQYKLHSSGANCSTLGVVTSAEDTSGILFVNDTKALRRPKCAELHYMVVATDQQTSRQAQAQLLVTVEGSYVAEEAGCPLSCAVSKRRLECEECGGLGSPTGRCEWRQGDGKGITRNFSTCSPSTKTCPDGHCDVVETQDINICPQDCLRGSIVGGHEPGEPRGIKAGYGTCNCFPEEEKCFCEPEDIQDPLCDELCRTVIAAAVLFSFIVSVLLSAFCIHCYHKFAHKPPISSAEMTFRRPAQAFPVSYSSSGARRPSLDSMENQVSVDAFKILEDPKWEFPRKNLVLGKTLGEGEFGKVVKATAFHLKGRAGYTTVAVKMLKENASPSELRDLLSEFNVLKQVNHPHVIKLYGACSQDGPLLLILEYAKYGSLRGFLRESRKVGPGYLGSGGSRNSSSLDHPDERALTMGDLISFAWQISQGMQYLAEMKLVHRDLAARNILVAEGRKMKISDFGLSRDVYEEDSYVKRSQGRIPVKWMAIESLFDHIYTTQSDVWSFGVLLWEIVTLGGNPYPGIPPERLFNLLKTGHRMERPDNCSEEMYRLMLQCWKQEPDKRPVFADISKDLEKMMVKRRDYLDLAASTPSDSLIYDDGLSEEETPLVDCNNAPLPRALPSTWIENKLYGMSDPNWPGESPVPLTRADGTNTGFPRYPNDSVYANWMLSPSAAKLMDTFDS
various kinases (Homo sapiens, UniProt O00506), sequence (O00506 whole entry): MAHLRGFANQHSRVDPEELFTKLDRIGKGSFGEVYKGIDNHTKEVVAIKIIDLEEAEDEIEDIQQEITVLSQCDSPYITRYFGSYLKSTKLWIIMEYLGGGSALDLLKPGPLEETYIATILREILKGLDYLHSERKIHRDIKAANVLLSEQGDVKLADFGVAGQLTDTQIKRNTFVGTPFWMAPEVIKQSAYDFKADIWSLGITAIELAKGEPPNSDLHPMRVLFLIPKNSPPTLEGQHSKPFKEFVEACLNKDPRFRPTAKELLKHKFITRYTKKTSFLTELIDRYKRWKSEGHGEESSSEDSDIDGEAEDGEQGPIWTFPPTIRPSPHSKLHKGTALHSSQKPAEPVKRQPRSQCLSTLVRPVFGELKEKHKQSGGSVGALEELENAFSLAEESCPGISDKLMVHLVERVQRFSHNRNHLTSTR
various kinases (Homo sapiens, UniProt Q52WX2), sequence (Q52WX2 whole entry): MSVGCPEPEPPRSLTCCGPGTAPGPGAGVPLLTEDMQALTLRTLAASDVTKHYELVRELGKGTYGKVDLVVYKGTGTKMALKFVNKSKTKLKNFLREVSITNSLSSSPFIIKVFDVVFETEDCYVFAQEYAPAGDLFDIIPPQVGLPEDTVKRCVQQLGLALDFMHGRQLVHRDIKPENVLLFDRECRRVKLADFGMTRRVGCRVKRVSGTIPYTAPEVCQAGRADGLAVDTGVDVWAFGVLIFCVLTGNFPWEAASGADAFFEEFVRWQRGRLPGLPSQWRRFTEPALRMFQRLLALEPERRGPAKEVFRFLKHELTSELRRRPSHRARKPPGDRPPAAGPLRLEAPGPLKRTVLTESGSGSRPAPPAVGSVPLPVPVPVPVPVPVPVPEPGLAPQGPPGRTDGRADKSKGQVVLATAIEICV
various kinases (Homo sapiens, UniProt Q16512), sequence (Q16512 whole entry): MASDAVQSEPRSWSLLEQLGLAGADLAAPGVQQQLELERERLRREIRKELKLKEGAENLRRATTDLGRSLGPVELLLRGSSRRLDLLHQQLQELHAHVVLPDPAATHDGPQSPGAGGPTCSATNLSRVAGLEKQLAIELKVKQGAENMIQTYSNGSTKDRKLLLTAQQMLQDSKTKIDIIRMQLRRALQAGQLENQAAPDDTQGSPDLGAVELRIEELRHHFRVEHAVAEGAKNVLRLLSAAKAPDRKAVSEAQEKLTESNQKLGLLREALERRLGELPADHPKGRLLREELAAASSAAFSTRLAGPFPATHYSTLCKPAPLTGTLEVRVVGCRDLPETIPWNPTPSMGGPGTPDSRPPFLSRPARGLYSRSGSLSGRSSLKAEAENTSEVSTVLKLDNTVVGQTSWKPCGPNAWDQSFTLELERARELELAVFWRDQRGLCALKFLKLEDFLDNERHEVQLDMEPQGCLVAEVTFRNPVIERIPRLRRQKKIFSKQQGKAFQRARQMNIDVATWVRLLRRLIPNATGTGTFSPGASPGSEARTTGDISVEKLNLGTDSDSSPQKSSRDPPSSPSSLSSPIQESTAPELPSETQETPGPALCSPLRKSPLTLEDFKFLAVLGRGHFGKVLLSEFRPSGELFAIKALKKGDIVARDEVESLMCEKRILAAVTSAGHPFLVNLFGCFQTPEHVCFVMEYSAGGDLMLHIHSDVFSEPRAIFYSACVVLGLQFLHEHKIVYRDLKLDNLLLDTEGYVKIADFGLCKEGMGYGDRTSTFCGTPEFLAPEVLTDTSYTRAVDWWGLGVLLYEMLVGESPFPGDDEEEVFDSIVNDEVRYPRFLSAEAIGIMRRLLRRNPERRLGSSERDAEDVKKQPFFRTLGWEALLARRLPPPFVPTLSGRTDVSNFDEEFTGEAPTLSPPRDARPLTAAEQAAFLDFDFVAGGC
various kinases (Homo sapiens, UniProt P53350), sequence (P53350 whole entry): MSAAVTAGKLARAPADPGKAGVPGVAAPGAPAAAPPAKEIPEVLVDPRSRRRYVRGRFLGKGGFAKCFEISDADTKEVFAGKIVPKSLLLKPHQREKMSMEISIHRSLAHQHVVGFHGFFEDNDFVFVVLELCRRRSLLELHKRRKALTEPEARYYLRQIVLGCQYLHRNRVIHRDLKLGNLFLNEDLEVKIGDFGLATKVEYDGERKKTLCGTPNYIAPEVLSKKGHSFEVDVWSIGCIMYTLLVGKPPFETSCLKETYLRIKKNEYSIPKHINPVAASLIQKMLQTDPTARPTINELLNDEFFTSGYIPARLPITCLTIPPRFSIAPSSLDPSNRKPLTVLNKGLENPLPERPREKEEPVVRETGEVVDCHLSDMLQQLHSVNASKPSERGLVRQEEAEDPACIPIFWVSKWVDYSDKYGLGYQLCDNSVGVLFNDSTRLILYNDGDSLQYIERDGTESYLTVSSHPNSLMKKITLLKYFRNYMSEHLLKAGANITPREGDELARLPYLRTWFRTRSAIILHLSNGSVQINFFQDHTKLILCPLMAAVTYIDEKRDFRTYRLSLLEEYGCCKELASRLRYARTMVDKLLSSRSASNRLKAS
various kinases (Homo sapiens, UniProt Q9NR20), sequence (Q9NR20 whole entry): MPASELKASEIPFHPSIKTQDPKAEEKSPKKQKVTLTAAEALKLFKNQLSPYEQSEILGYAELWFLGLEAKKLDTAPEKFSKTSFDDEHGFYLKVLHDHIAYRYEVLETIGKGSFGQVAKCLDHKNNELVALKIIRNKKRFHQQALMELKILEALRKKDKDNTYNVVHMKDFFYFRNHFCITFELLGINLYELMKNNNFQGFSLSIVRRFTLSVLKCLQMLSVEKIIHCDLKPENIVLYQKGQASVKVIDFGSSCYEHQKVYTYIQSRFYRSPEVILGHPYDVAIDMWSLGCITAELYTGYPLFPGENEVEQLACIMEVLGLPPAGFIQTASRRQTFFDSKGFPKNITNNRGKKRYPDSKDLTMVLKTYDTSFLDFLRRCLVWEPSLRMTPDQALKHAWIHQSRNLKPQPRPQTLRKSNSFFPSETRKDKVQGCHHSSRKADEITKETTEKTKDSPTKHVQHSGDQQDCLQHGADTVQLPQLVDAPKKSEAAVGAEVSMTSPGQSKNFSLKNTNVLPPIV
various kinases (Homo sapiens, UniProt P53778), sequence (P53778 whole entry): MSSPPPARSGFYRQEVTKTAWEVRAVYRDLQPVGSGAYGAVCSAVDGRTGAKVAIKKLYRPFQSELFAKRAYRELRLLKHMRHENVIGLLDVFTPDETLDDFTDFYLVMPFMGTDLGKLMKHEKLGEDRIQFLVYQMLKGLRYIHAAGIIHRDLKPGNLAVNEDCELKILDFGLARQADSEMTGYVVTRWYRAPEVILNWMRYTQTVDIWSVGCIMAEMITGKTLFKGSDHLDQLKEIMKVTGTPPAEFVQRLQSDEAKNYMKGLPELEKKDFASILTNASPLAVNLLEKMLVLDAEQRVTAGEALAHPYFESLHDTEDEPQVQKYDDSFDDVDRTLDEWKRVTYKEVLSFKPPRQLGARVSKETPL

COc1ccc2c(c1)[C@]1(C[C@H]1c1ccc3c(/C=C/c4ccc(CN5C[C@@H](C)O[C@@H](C)C5)cc4)n[nH]c3c1)C(=O)N2 [CFI-400945]
% Inhibition Average (various kinases [1]): 20%
% Inhibition Duplicate #1 (various kinases [1]): 27%
% Inhibition Duplicate #2 (various kinases [1]): 13%
% Inhibition (various kinases [2]): -1%
% Inhibition Average (various kinases [3]): 17%
% Inhibition Duplicate #1 (various kinases [3]): 14%
% Inhibition Duplicate #2 (various kinases [3]): 19%
% Inhibition (various kinases [4]): 8% and 7%
% Inhibition (various kinases [5]): 0% and 6%
% Inhibition (various kinases [6]): 8% and 5%
% Inhibition (various kinases [7]): 10% and 4%
% Inhibition (various kinases [8]): 9% and 2%
% Inhibition (various kinases [9]): -2%
% Inhibition Average (various kinases [10]): 5%
% Inhibition Duplicate #1 (various kinases [10]): 6%
% Inhibition Duplicate #2 (various kinases [10]): 5%
% Inhibition (various kinases [11]): 20% and 26%
% Inhibition (various kinases [12]; LYN B): 7% and 9%
% Inhibition Average (various kinases [12]; kinase PRKCB2 (PKC beta II)): 13%
% Inhibition Duplicate #1 (various kinases [12]; kinase PRKCB2 (PKC beta II)): 12%
% Inhibition Duplicate #2 (various kinases [12]; kinase PRKCB2 (PKC beta II)): 14%
% Inhibition Average (various kinases [12]; kinase SRC N1): 14%
% Inhibition Duplicate #1 (various kinases [12]; kinase SRC N1): 14%
% Inhibition Duplicate #2 (various kinases [12]; kinase SRC N1): 14%
% Inhibition (various kinases [13]): -3% and 2%
% Inhibition (various kinases [14]): 1% and 2%
% Inhibition Average (various kinases [15]): 8%
% Inhibition Duplicate #1 (various kinases [15]): 9%
% Inhibition Duplicate #2 (various kinases [15]): 7%
% Inhibition Average (various kinases [16]): -3%
% Inhibition Duplicate #1 (various kinases [16]): 0%
% Inhibition Duplicate #2 (various kinases [16]): -6%
% Inhibition (various kinases [17]): 5% and 8%
% Inhibition Average (various kinases [18]): 0%
% Inhibition Duplicate #1 (various kinases [18]): -1%
% Inhibition Duplicate #2 (various kinases [18]): 2%
% Inhibition (various kinases [19]): -3% and -1%
% Inhibition (various kinases [20]): 2% and -1%
% Inhibition (various kinases [21]): 13% and 8%
% Inhibition (various kinases [22]): 56% and 53%
pIC50 (various kinases [22]): 6.70
% Inhibition (various kinases [23]): 2% and 4%
% Inhibition (various kinases [24]): 10% and 7%
% Inhibition (various kinases [25]): 3% and 4%
% Inhibition (various kinases [26]): 10% and 11%
% Inhibition (various kinases [27]): 9% and 10%
% Inhibition (various kinases [28]): 51%
% Inhibition (various kinases [29]): 3% and 2%
% Inhibition (various kinases [30]): -3% and -2%
% Inhibition (various kinases [31]): 3% and 10%

From article PMC5762315, “Inhibition of polo-like kinase 4 (PLK4): a new therapeutic option for rhabdoid tumors and pediatric medulloblastoma” (Oncotarget, 2017)
